What was measured:
Format in all cases: cell-based
[1] = tested on: H838 NRF2-ARE-Fluc stable cell line; assay: H838 Nrf2 assay: NRF2-ARE firefly luciferase reporter gene assay; conditions: Homo sapiens, NCI-H838, read-out: Potency of inhibition, H838
Text: H838 is a NSCLC cell line with LOF Keap1 activity and constitutive translocation of NRF2 into the nucleus. A firefly luciferase reporter construct driven by a minimal promoter of NRF2-specific ARE is stably expressed in the H838 cells. This cell line was used as a confirmation assay to make sure hits identified from primary screening and that passed counterscreen assays worked in different cell types with a constitutively active NRF2 pathway (deficiency in Keap1).
This assay was very similar to the primary assay except that the cell line was changed. […] The final concentration of DMSO was maintained at 0.46%. Control compounds Budesonide and Staurosporine were both added at a concentration of 2 mM and Budesonide was also added as a 1:10 titration, starting at 200 μM, to achieve dose-response. After an 18-24 hour incubation at 37° C., 95% humidity, and 5% CO2, 1 μL of 5× CellTiter-Fluor non-lytic cell viability assay reagent (Promega, Madison Wis.) was added into the each well of the plates. The plates were then incubated for 30 minutes at room temperature before they were read on a ViewLux plate imager (Perkin Elmer, Waltham Mass.) using an excitation wavelength of 405 nm and an emission wavelength of 525 nm.
Representative compounds were assayed to assess the potency of inhibition in an A549 NRF2-ARE-Fluc stable cell line (A549 Nrf2 assay), in an H838 NRF2-ARE-Fluc stable cell line (H838 Nrf2 assay), and in an H1437 NRF2-ARE-Fluc stable cell line (H1437 Nrf2 assay) (see Table 3).

[2] = tested on: A549 NRF2-ARE-Fluc stable cell line; assay: A549 Nrf2 assay: NRF2-ARE firefly luciferase reporter gene assay; conditions: Homo sapiens, read-out: Potency of inhibition, A549
Outline: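 A549 cells (Keap1 loss-of-function, constitutive NRF2) stably carrying ARE-driven firefly luciferase; compound treatment 18–24 h at 37 °C, 0.46% DMSO final.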

[3] = tested on: H1437 NRF2-ARE-Fluc stable cell line; assay: H1437 Nrf2 assay: NRF2-ARE firefly luciferase reporter gene assay; conditions: Homo sapiens, NCI-H1437, H1437 NRF2-ARE-Fluc stable cell line; read-out: Potency of inhibition, H1437

SMILES	IC50 [1] [µM]	IC50 [2] [µM]	IC50 [3] [µM]
Cc1ccc(C(=O)Nc2nc(-c3ccccn3)cs2)cc1S(=O)(=O)N1CCOCC1 [Compound 50]	> 25	< 5	> 25
O=C(Nc1ccc(S(=O)(=O)N2CCOCC2)cc1)c1ccc(CN2CCc3ccccc3C2)cc1 [Compound 48]	> 25	< 5	5 to 25
COc1ccccc1C(=O)Nc1nc(-c2ccc(S(=O)(=O)N3CCOCC3)cc2)cs1 [Compound 47]	< 5	< 5	< 5
CCN(CC)S(=O)(=O)c1cccc(NC(=O)CNc2cccc(S(=O)(=O)N3CCOCC3)c2)c1 [Compound 49]	> 25	< 5	< 5
O=C(O)c1ccc(CN2CCc3ccccc3C2)cc1 [Compound 90, 4-((3,4-dihydroisoquinolin-2(1H)-yl)methyl)benzoic acid]		> 25	> 25
O=C(Nc1ccc(S(=O)(=O)N2CCCC2)cc1)c1ccc(CN2CCc3ccccc3C2)cc1 [compound 145]		< 5	> 25
O=C(Nc1cccc(Nc2ccccc2)c1)c1ccc(-c2cccc([N+](=O)[O-])c2)o1 [Compound 137]		< 5	> 25
Cc1noc(C)c1C(=O)N1CCc2cc(-c3nc(NC(=O)Cc4ccc5c(c4)OCO5)sc3C)ccc21 [Compound 183]		< 5	< 5
Cc1ccccc1C(=O)N1CCc2cc(-c3nc(NC(=O)CCc4ccccc4)sc3C)ccc21 [Compound 210]		< 5	5 to 25
CC(=O)N1CCN(CC(=O)Nc2nc(-c3ccc4c(c3)CCN4C(=O)c3ccccc3C)c(C)s2)CC1 [Compound 227]		5 to 25	5 to 25
O=C(Nc1ccc(C(=O)N2CCOCC2)cc1)c1ccc(CN2CCc3ccccc3C2)cc1 [compound 147]		5 to 25	> 25
COc1ccc(Cc2cnc(NC(=O)c3ccn(-c4ccccc4)n3)s2)cc1 [Compound 223]		5 to 25	5 to 25
O=C(NC1CCCN(Cc2ccccc2)C1)c1ccc(-c2cccc([N+](=O)[O-])c2)o1 (stereo not drawn) [Compound 103]		> 25	> 25
COc1cccc(CC(=O)Nc2nc(-c3ccc4c(c3)CCN4C(=O)c3ccccc3C)c(C)s2)c1 [Compound 6]		< 5	< 5
O=C(Nc1ncc(Cc2ccc(C(F)(F)F)cc2)s1)c1cccc(-c2ccccc2)c1 [Compound 59]		5 to 25	> 25
COc1ccc(CC(=O)Nc2nc(-c3ccc4c(c3)CCN4C(=O)c3cccnc3C)c(C)s2)cc1 [Compound 196]		< 5	< 5
Cc1cccnc1C(=O)N1CCc2cc(-c3nc(NC(=O)Cc4ccc5c(c4)OCO5)sc3C)ccc21 [Compound 141]		< 5	> 25
O=C(Nc1ncc(Cc2ccc(C(F)(F)F)cc2)s1)c1cccc(-c2ccccc2)n1 [Compound 61]		< 5	> 25
O=C(Cc1ccccc1)Nc1ccc(Cl)nc1 [Compound 106, N-(6-chloropyridin-3-yl)-2-phenylacetamide]		> 25	> 25
O=C(Nc1ccc(S(=O)(=O)N2CCOCC2)cc1)c1ccc(CN2CCN(c3ccccc3)CC2)cc1 [Compound 203]		< 5	< 5

SMILES	IC50 [1] [µM]	IC50 [2] [µM]	IC50 [3] [µM]
CC1c2ccccc2CCN1Cc1ccc(C(=O)Nc2ccc(S(=O)(=O)N3CCOCC3)cc2)cc1 (stereo not drawn) [Compound 230]		< 5	< 5
O=C(Nc1ncc(Cc2ccc(F)cc2)s1)c1ccn(-c2ccccc2)n1 [Compound 222]		< 5	< 5
O=C(Nc1ccc(Cl)c(S(=O)(=O)N2CCOCC2)c1)c1ccc(S(=O)(=O)N2CCCCC2)cc1 [compound 54]		< 5	< 5
CC1=C(C(=O)N2CCc3cc(-c4nc(NC(=O)Cc5ccc6c(c5)OCO6)sc4C)ccc32)OCCO1 [Compound 162]		< 5	< 5
CC1(C)CC2CC(C)(CN2S(=O)(=O)c2ccc(C(=O)Nc3ccc(Cl)cc3)cc2)C1 (stereo not drawn) [compound 53]		< 5	5 to 25
O=C(CCCc1ccccc1)Nc1ncc(Cc2ccc(C(F)(F)F)cc2)s1 [Compound 108]		> 25	> 25
O=C(Nc1cccc(Cc2ccccc2)n1)c1ccc(-c2cccc([N+](=O)[O-])c2)o1 [Compound 142]		5 to 25	> 25
CCOC(=O)N1CCN(CC(=O)Nc2nc(-c3ccc4c(c3)CCN4C(=O)c3ccccc3C)c(C)s2)CC1 [Compound 228]		< 5	< 5
Cc1ccccc1C(=O)N1CCc2cc(N3CCC(NC(=O)Cc4ccccc4)C3)ccc21 (stereo not drawn) [Compound 96]		5 to 25	5 to 25
O=C(Nc1ncc(Cc2ccc(C(F)(F)F)cc2)s1)c1ccc(-c2ccccc2)s1 [Compound 83]		> 25	> 25
CC(C)(C)OC(=O)N1CCN(S(=O)(=O)c2ccc(NC(=O)c3ccc(CN4CCc5ccccc5C4)cc3)cc2)CC1 [compound 144]		< 5	< 5
CC1Cc2ccccc2CN1Cc1ccc(C(=O)Nc2ccc([S+](=O)([O-])N3CCOCC3)cc2)cc1 (stereo not drawn) [Compound 206]		< 5	< 5
Cc1ncccc1C(=O)N1CCc2cc(-c3nc(NC(=O)Cc4ccc5c(c4)OCO5)sc3C)ccc21 [Compound 139]		5 to 25	< 5
O=C(Nc1ccc(S(=O)(=O)N2CCC(F)(F)CC2)cc1)c1ccc(CN2CCc3ccccc3C2)cc1 [compound 188]		< 5	< 5
O=C(Nc1ncc(Cc2ccc(C(F)(F)F)cc2)s1)c1cnc(-c2ccccc2)s1 [Compound 99]		5 to 25	> 25
Cc1sc(NC(=O)Cc2ccc3c(c2)OCO3)nc1-c1ccc2c(c1)CCN2C [Compound 26]		5 to 25	> 25
O=C(Nc1ncc(Cc2cccc(Cl)c2)s1)c1ccn(-c2ccccc2)n1 [Compound 220]		5 to 25	< 5
O=C(Nc1ccc(Cl)c(S(=O)(=O)N2CCOCC2)c1)c1ccc(S(=O)(=O)N2CCOCC2)cc1 [compound 55]		< 5	< 5
Cc1ncoc1C(=O)N1CCc2cc(-c3nc(NC(=O)Cc4ccc5c(c4)OCO5)sc3C)ccc21 [Compound 181]		< 5	> 25
Cc1ccccc1C(=O)N1CCc2cc(-c3cccc(NC(=O)Cc4ccc5c(c4)OCO5)n3)ccc21 [Compound 28]		5 to 25	> 25

From US20160046616A1, “NRF2 SMALL MOLECULE INHIBITORS FOR CANCER THERAPY” (THE JOHNS HOPKINS UNIVERSITY, priority 2013, published 2016)
